According to PubChem BioAssay (NCI):
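GI50 is the concentration that inhibits growth by half. TGI: concentration producing complete growth inhibition.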 Where a SMILES comes first, the peptide text is derived from it. [ ]: non-standard residue; d: D form. The star is where a group is joined. Dolaproine = CO[C@@H]([C@@H]1CCCN1)[C@@H](C)C(=O)O; Dil = CC[C@H](C)[C@H](NC)[C@@H](CC(=O)O)OC; X2 = C[C@@H](N*)[C@@H](O)c1ccccc1; NMeV = CN[C@H](C(=O)O)C(C)C

Key:
Test in all cases: inhibition of tumour cell growth, NCI panel, 384-well format
786-0 renal = test system: 786-0 renal
A498 renal = test system: A498 renal
A549 NSCLC = test system: A549 NSCLC
ACHN renal = test system: ACHN renal
BT-549 breast = test system: BT-549 breast
CAKI-1 renal = test system: CAKI-1 renal
CCRF-CEM leukemia = test system: CCRF-CEM leukemia
COLO 205 colon = test system: COLO 205 colon
DU-145 prostate = test system: DU-145 prostate
HCC-2998 colon = test system: HCC-2998 colon
HCT-116 colon = test system: HCT-116 colon
HCT-15 colon = test system: HCT-15 colon
HL-60(TB) leukemia = test system: HL-60(TB) leukemia
HOP-62 NSCLC = test system: HOP-62 NSCLC
HOP-92 NSCLC = test system: HOP-92 NSCLC
HT29 colon = test system: HT29 colon
IGROV1 ovarian = test system: IGROV1 ovarian
K-562 leukemia = test system: K-562 leukemia
KM12 colon = test system: KM12 colon
LOX IMVI melanoma = test system: LOX IMVI melanoma
M14 melanoma = test system: M14 melanoma
MALME-3M melanoma = test system: MALME-3M melanoma
MCF7 breast = test system: MCF7 breast
MDA-MB-231 breast = test system: MDA-MB-231 breast
MDA-MB-435 melanoma = test system: MDA-MB-435 melanoma
MDA-MB-468 breast = test system: MDA-MB-468 breast
MOLT-4 leukemia = test system: MOLT-4 leukemia
NCI-H226 lung = test system: NCI-H226 lung
NCI-H23 lung = test system: NCI-H23 lung
NCI-H322M lung = test system: NCI-H322M lung
NCI-H460 NSCLC = test system: NCI-H460 NSCLC
NCI-H522 lung = test system: NCI-H522 lung
NCI/ADR-RES ovarian = test system: NCI/ADR-RES ovarian
OVCAR-3 ovarian = test system: OVCAR-3 ovarian
OVCAR-4 ovarian = test system: OVCAR-4 ovarian
OVCAR-5 ovarian = test system: OVCAR-5 ovarian
OVCAR-8 ovarian = test system: OVCAR-8 ovarian
RPMI-8226 leukemia = test system: RPMI-8226 leukemia
RXF 393 renal = test system: RXF 393 renal
SF-268 CNS = test system: SF-268 CNS
SF-295 CNS = test system: SF-295 CNS
SF-539 CNS = test system: SF-539 CNS
SK-MEL-2 melanoma = test system: SK-MEL-2 melanoma
SK-MEL-5 melanoma = test system: SK-MEL-5 melanoma
SK-OV-3 ovarian = test system: SK-OV-3 ovarian
SN12C renal = test system: SN12C renal
SNB-19 CNS = test system: SNB-19 CNS
SR leukemia = test system: SR leukemia
SW-620 colon = test system: SW-620 colon
T-47D breast = test system: T-47D breast
TK-10 renal = test system: TK-10 renal
U251 glioblastoma = test system: U251 glioblastoma
UACC-257 melanoma = test system: UACC-257 melanoma
UACC-62 melanoma = test system: UACC-62 melanoma
UO-31 renal = test system: UO-31 renal

CC[C@H](C)[C@@H]([C@@H](CC(=O)N1CCC[C@H]1[C@H](OC)[C@@H](C)C(=O)N[C@H](C)[C@@H](O)c1ccccc1)OC)N(C)C(=O)[C@@H](NC(=O)[C@@H](NC)C(C)C)C(C)C (H-[NMeV]V[Dil][Dolaproine]-X2)
GI50 ([…]-0 renal): < 10 nM
TGI (786-0 renal): < 10 nM
GI50 (A498 renal): < 10 nM
TGI (A498 renal): 11.2 nM
GI50 (A549 NSCLC): < 10 nM
TGI (A549 NSCLC): < 10 nM
GI50 (ACHN renal): < 10 nM
TGI (ACHN renal): > 100000 nM
GI50 (BT-549 breast): < 10 nM
TGI (BT-549 breast): < 10 nM
GI50 (CAKI-1 renal): < 10 nM
TGI (CAKI-1 renal): 24400 nM
GI50 (CCRF-CEM leukemia): < 10 nM
TGI (CCRF-CEM leukemia): < 10 nM
GI50 (COLO 205 colon): < 10 nM
TGI (COLO 205 colon): < 10 nM
GI50 (DU-145 prostate): < 10 nM
TGI (DU-145 prostate): < 10 nM
GI50 (HCC-2998 colon): < 10 nM
TGI (HCC-2998 colon): < 10 nM
GI50 (HCT-116 colon): < 10 nM
TGI (HCT-116 colon): < 10 nM
GI50 (HCT-15 colon): < 10 nM
TGI (HCT-15 colon): 63.2 nM
GI50 (HL-60(TB) leukemia): < 10 nM
TGI (HL-60(TB) leukemia): < 10 nM
GI50 (HOP-62 NSCLC): < 10 nM
TGI (HOP-62 NSCLC): 30.4 nM
GI50 (HOP-92 NSCLC): < 10 nM
TGI (HOP-92 NSCLC): < 10 nM
GI50 (HT29 colon): < 10 nM
TGI (HT29 colon): < 10 nM
GI50 (IGROV1 ovarian): < 10 nM
TGI (IGROV1 ovarian): 91.6 nM
GI50 (K-562 leukemia): < 10 nM
TGI (K-562 leukemia): < 10 nM
GI50 (KM12 colon): < 10 nM
TGI (KM12 colon): < 10 nM
GI50 (LOX IMVI melanoma): < 10 nM
TGI (LOX IMVI melanoma): < 10 nM
GI50 (M14 melanoma): < 10 nM
TGI (M14 melanoma): < 10 nM
GI50 (MALME-3M melanoma): < 10 nM
TGI (MALME-3M melanoma): < 10 nM
GI50 (MCF7 breast): < 10 nM
TGI (MCF7 breast): 121 nM
GI50 (MDA-MB-231 breast): < 10 nM
TGI (MDA-MB-231 breast): < 10 nM
GI50 (MDA-MB-435 melanoma): < 10 nM
TGI (MDA-MB-435 melanoma): < 10 nM
GI50 (MDA-MB-468 breast): < 10 nM
TGI (MDA-MB-468 breast): < 10 nM
GI50 (MOLT-4 leukemia): < 10 nM
TGI (MOLT-4 leukemia): < 10 nM
GI50 (NCI-H226 lung): < 10 nM
TGI (NCI-H226 lung): < 10 nM
GI50 (NCI-H23 lung): < 10 nM
TGI (NCI-H23 lung): < 10 nM
GI50 (NCI-H322M lung): < 10 nM
TGI (NCI-H322M lung): > 100000 nM
GI50 (NCI-H460 NSCLC): < 10 nM
TGI (NCI-H460 NSCLC): < 10 nM
GI50 (NCI-H522 lung): < 10 nM
TGI (NCI-H522 lung): < 10 nM
GI50 (NCI/ADR-RES ovarian): 105 nM
TGI (NCI/ADR-RES ovarian): 266 nM
GI50 (OVCAR-3 ovarian): < 10 nM
TGI (OVCAR-3 ovarian): < 10 nM
GI50 (OVCAR-4 ovarian): < 10 nM
TGI (OVCAR-4 ovarian): 24300 nM
GI50 (OVCAR-5 ovarian): < 10 nM
TGI (OVCAR-5 ovarian): > 100000 nM
GI50 (OVCAR-8 ovarian): < 10 nM
TGI (OVCAR-8 ovarian): < 10 nM
GI50 (RPMI-8226 leukemia): < 10 nM
TGI (RPMI-8226 leukemia): < 10 nM
GI50 (RXF 393 renal): < 10 nM
TGI (RXF 393 renal): < 10 nM
GI50 (SF-268 CNS): < 10 nM
TGI (SF-268 CNS): < 10 nM
GI50 (SF-295 CNS): < 10 nM
TGI (SF-295 CNS): < 10 nM
GI50 (SF-539 CNS): < 10 nM
TGI (SF-539 CNS): < 10 nM
GI50 (SK-MEL-2 melanoma): < 10 nM
TGI (SK-MEL-2 melanoma): < 10 nM
GI50 (SK-MEL-5 melanoma): < 10 nM
TGI (SK-MEL-5 melanoma): < 10 nM
GI50 (SK-OV-3 ovarian): < 10 nM
TGI (SK-OV-3 ovarian): < 10 nM
GI50 (SN12C renal): < 10 nM
TGI (SN12C renal): > 100000 nM
GI50 (SNB-19 CNS): < 10 nM
TGI (SNB-19 CNS): < 10 nM
GI50 (SR leukemia): < 10 nM
TGI (SR leukemia): < 10 nM
GI50 (SW-620 colon): < 10 nM
TGI (SW-620 colon): > 100000 nM
GI50 (T-47D breast): < 10 nM
TGI (T-47D breast): > 100000 nM
GI50 (TK-10 renal): < 10 nM
TGI (TK-10 renal): > 100000 nM
GI50 (U251 glioblastoma): < 10 nM
TGI (U251 glioblastoma): < 10 nM
GI50 (UACC-257 melanoma): < 10 nM
TGI (UACC-257 melanoma): 12700 nM
GI50 (UACC-62 melanoma): < 10 nM
TGI (UACC-62 melanoma): < 10 nM
GI50 (UO-31 renal): < 10 nM
TGI (UO-31 renal): > 100000 nM
